{
  "source": "patent US10182500B2",
  "about": "“Curable composition for photoimprint, cured product, and method of producing film having pattern, optical component, circuit board, or electronic component using the composition” (CANON KABUSHIKI KAISHA, priority 2014, dated 2019)",
  "key": {"[1]": {"experiment": "Saturated solubility in liquid condensable gas (PFP), visual observation", "conditions": "for Saturated solubility: to PFP, liquid state at 5° C. and 1 atm", "method": "(§1) An arbitrary amount of a photopolymerization initiator is weighed in a sample bottle at 23° C., and a condensable gas cooled to 5° C. to a liquid state is gradually added to the bottle until the photopolymerization initiator is completely dissolved. The sample bottle is capped and is left to stand in a refrigerator at 5° C. for 1 hour. The sample bottle is then subjected to visual observation whether the photopolymerization initiator is completely dissolved. The weight of the weighed photopolymerization initiator is divided by the sum of the weight of the photopolymerization initiator and the weight of the condensable gas in a liquid state, and the resulting quotient is expressed in percentage as the saturated solubility.\n(§2) The sample bottle was capped and was left to stand in a refrigerator at 5° C. for 1 hour. The sample bottle was then visually observed."}, "[2]": {"conditions": "1 h", "method": "as §1, §2"}, "[3]": {"conditions": "composition mainly composed of an acrylic monomer; cited from earlier work"}},
  "note": "Where two headings read alike, the source gives them in different places.",
  "data": [
    {"smiles": "COC(OC)(C(=O)c1ccccc1)c1ccccc1", "note": "[Formula (6), benzyl dimethyl ketal]", "values": [
      {"measurement": "saturated solubility", "setting": "[1]; at 5° C. in PFP being a liquid state at 5° C. and 1 atm", "result": "higher than 2.67 % by weight"}
    ]},
    {"smiles": "Cc1cc(C)c(C(=O)P(=O)(c2ccccc2)c2ccccc2)c(C)c1", "note": "[Formula (1), 2,4,6-trimethylbenzoyldiphenylphosphine oxide]", "values": [
      {"measurement": "Saturated solubility", "setting": "[2]", "result": "<1.0", "unit": "% by weight"},
      {"measurement": "saturated solubility", "setting": "[2]", "result": "less than 1 % by weight"}
    ]},
    {"smiles": "CCN(CC)c1ccc(C(=O)c2ccc(N(CC)CC)cc2)cc1", "note": "[Formula (4), 4,4′-bis(diethylamino)benzophenone]", "values": [
      {"measurement": "Saturated solubility", "setting": "[1]", "result": "<1.0", "unit": "% by weight"}
    ]},
    {"smiles": "FC(F)CC(F)(F)F", "note": "[1,1,1,3,3-pentafluoropropane]", "values": [
      {"measurement": "PFP dissolved in curable composition for photoimprint", "setting": "[3]", "result": "about 40 % by volume"}
    ]},
    {"smiles": "CC(C)c1ccc2sc3ccccc3c(=O)c2c1", "note": "[Formula (3), 2-isopropylthioxanthone]", "values": [
      {"measurement": "Saturated solubility", "setting": "[1]", "result": "<1.0", "unit": "% by weight"}
    ]}
  ]
}
